Here are results for two substances from patent US20100190713A1, “USE OF THE PEPTIDE THYMOSIN BETA 4 ALONE OR IN COMBINATION WITH CECROPIN A AS A THERAPEUTIC AGENT” (priority 2007, published 2010).

The subject of experiment [1] is hepatitis B virus (HBV) ayw strain. The experiment in a line: HBV experimental assay system, HepG2-2.2.15, secreted HBV DNA by TaqMan PCR. It counts as cell-based. The conditions noted are these: 10 micrograms per ml; HepG2-2.2.15, six days. On the technique in general: Quantitative PCR measures a nucleic acid by following its amplification.
Experiment [2] has as its system RAW 264.7 (Mouse leukaemic monocyte macrophage cell line) cells. The experiment is described as follows: Phagocytosis assay (Fluorescein-labeled Escherichia coli, flow cytometry). It counts as cell-based. To be noted: 10 micrograms per ml. On the procedure:
RAW 264.7 (Mouse leukaemic monocyte macrophage cell line) cells were obtained from ATCC and grown in RPMI 1640 medium containing 10% FBS. Cells were incubated in 12×75 mm tubes at 37° C. with test peptides—10 micrograms per ml—for 30 min prior to adding Fluorescein-labeled Escherichia coli bacteria as the agent to be ingested. After the cells were incubated for additional 60 min at 37° C. and allowed to ingest the Fluorescein-labeled Escherichia coli bacteria, cells were fixed with 1% paraformaldehyde. The samples were then analyzed by flow cytometry to determine the amount of phagocytosis as a function of brightness (the greater the phagocytic activity, the more fluorescence in the macrophage population). Data are reported as % positive and the mean fluorescence intensity (MFI) of positively stained cells.
In general terms: In flow cytometry, cells or beads pass a laser one at a time.

A further experiment concerns murine spleen cells. The experiment in a line: Th1/Th2 cytokine profiling assay (Ovalbumin-restimulated spleen cells, CBA kit). It counts as cell-based, Balb/c mice. To be noted: 10 micrograms per ml, 72 hours.
In another experiment the test system is HCMV strain AD169. The experiment in a line: HCMV plaque formation assay in MRC-5 cells. It counts as cell-based. To be noted: 10 micrograms per ml, 7-10 days. The source says:
Ganciclovir was used as positive control.

Experiment [3] deals with Primary Human endothelial cells (HUVEC). The experiment in a line: Endothelial cell migration assay. The conditions noted are these: 10 micrograms per ml, 22 hours. It counts as cell-based. On the procedure: Thereafter, designated concentration of testing peptides—10 micrograms per ml—was added in duplicate wells.
The subject of a further experiment is HUVEC. The experiment is described as follows: Endothelial tube formation assay. In kind it is cell-based, human. The conditions noted are these: 10 micrograms per ml, 20 hours. From the text: Positive control wes vehicle only.

Where no end group is shown, it is not given here.

Turning to “Ac-Ser-Asp-Lys-Pro-Asp-Met-Ala-Glu-Ile-Glu-Lys-Phe-Asp-Lys-Ser-Lys-Leu-Lys-Lys-Thr-Glu-Thr-Gln-Glu-Lys-Asn-Pro-Leu-Pro-Ser-Lys-Glu-Thr-Ile-Glu-Gln-Glu-Lys-Gln-Ala-Gly-Glu-Ser-OH (SDKPDMAEIEKFDKSKLKKTETQEKNPLPSKETIEQEKQAGES; printed: Ser-Asp-Lys-Pro-Asp-Met-Ala-Glu-Ile-Glu-Lys-Phe-Asp-Lys-Ser-Lys-Leu-Lys-Lys-Thr-Glu-Thr-Gln-Glu-Lys-Asn-Pro-Leu-Pro-Ser-Lys-Glu-Thr-Ile-Glu-Gln-Glu-Lys-Gln-Ala-Gly-Glu-Ser-) [Peptide 1]”, the “inhibition of HBV replication as compared to the virus control infection” value in experiment [1] was “no effect”. Moreover, in experiment [2], the “induction of phagocytosis as compared to the virus control experiment” value was found to be 45.7%. In addition, in the experiment on murine spleen cells, the “production of IFN-γ (decreased by)” value is 52.7%, the “production of IL-2 (decreased by)” value is “did not significantly change”, the “production of IL-4 (induced by)” value turned out to be 31.6% and the “production of IL-5 (decreased by)” value was “did not significantly change”. In the experiment on murine spleen cells, the “production of TNF-alpha (change)” value is “did not significantly change”.
In the case of “Lys-Trp-Lys-Leu-Phe-Lys-Lys-Ile-Glu-Lys-Val-Gly-Gln-Asn-Ile-Arg-Asp-Gly-Ile-Ile-Lys-Ala-Gly-Pro-Ala-Val-Ala-Val-Val-Gly-Gln-Ala-Thr-Gln-Ile-Ala-Lys-NH2 (KWKLFKKIEKVGQNIRDGIIKAGPAVAVVGQATQIAK-NH2) [Peptide 2]”, the “inhibition of HBV replication as compared to the virus control infection” value in experiment [1] was determined as 10.5%. Besides, the “inhibition of HCMV plaque formation as compared to the virus control experiment” value with HCMV strain AD169 is reported as 2.1%. For the same substance, in experiment [2], the “induction of phagocytosis as compared to the virus control experiment” value is on record as “did not induce phagocytosis”. Further, in the experiment with murine spleen cells, the “production of IFN-γ (decreased by)” value turned out to be 65.6%, the “production of IL-2 (decreased by)” value was 42.7%, the “production of IL-4 (induced by)” value is recorded as “did not significantly change” and the “production of IL-5 (decreased by)” value was 37.0%. Also, the “production of TNF-alpha (change)” value in the experiment on murine spleen cells is given as “did not significantly change”. Moreover, the “inhibition of the migration of human endothelial cells” value in experiment [3] amounted to 15%. For the same substance, the “inhibition of the tube formation of human endothelial cells” value with HUVEC came to 10%.
